Experiments:
[1] = target: T1, cathepsin S (Homo sapiens, UniProt P25774); experiment: Cathepsin S enzyme inhibition in vitro (kinetic fluorescence assay); assay type: biochemical; details: recombinant human cathepsin S vs calpain I
T1 construct: purchased Calbiochem 219343; host or cells: E. coli
Experimental: (§1) The following solutions and buffers were employed: • HBS (for 40 ml): 800 μl M HEPES; 2.16 ml 100 mM KCl; 4.8 ml 1M NaCl; 3.59 ml 5% glucose; 60 μl μM MgSO4; 400 μl 100 mM Na pyruvate, 28.19 ml water; pH 7.2-7.5. • lysis buffer (for 20 ml): 400 μl M Tris pH 8.2; 2.74 ml 1M NaCl; 520 μl 0.5M EDTA; 2 ml 10% triton X-100; 0.8 ml (=1:25) CompletePlus (1 tablet/2 ml H2O); 200 μl 100 mM Pefabloc; 13.34 ml water, pH 8.2. • TBST (10×) (for 1 l): 100 mM Tris (12.1 g); 1.5M NaCl (87 g); 1% Tween 20 (10 g), adjusted to pH 8. I Enzyme Inhibition In Vitro: • Testing for blockade of the corresponding enzymic activities was carried out by means of kinetic fluorescence assays (excitation 390 nm, emission 460 nm). • Apparent Ki values were calculated from the experimentally determined IC50 values by the Cheng-Prussoff relation assuming a reversible competitive enzyme inhibition. The Km values of the substrates used under the assay conditions indicated above were: 90 μM (Z-Phe-Arg-AMC, cathepsin B), 10 μM (Z-Gly-Pro-Arg-AMC, cathepsin K), 2 μM (Z-Phe-Arg-AMC, cathepsin L), and 30 μM (Z-Val-Val-Arg-AMC, cathepsin S). • The indicated Ki values are averages of the inhibition constants calculated on the basis of 2 to 4 independent dose-effect plots.
(§2) The following assays were used: • 1. Calpain I: • 20 nM calpain-I—isolated from human erythrocytes (Calbiochem #208713), 100 μM Suc-Leu-Tyr-AMC (Bachem #1-1355) as substrate in buffer with 62 mM imidazole, 0.3 mM CaCl2, 0.10% CHAPS, 0.05% BSA, 1 mM DTT at pH 7.3 and room temperature. • 2. Cathepsin B: • 0.25 nM cathepsin B—isolated from human liver (Calbiochem #219362), 100 μM Z-Phe-Arg-AMC (Bachem #I-1160) as substrate 50 mM MES, 2 mM EDTA, 0.05% Brij 35, 2.5 mM L-cysteine, pH 6.0, room temperature. • 3. Cathepsin K: • 3 nM cathepsin K—activated from recombinant human procathepsin K from E. coli (Calbiochem #342001), 10 μM Z-Gly-Pro-Arg-AMC (Biomol #P-142) as substrate in 50 mM MES, 2 mM EDTA, 0.05% Brij 35, 2.5 mM L-cysteine, pH 6.0, room temperature. • 4. Cathepsin L: • 1 nM cathepsin L—isolated from human liver (Calbiochem #219402), 2 μM Z-Phe-Arg-AMC (Bachem #1-1160) as substrate in 50 mM MES, 2 mM EDTA, 0.05% Brij 35, 2.5 mM L-cysteine, pH 6.0, room temperature. • 5. Cathepsin S: • 0.5 nM recombinant human cathepsin S from E. coli (Calbiochem #219343), 20 μM Z-Val-Val-Arg-AMC (Bachem #1-1540) as substrate in 50 mM MES, 2 mM EDTA, 0.05% Brij 35, 2.5 mM L-cysteine, pH 6.0, room temperature. • The results of the in vitro determination are indicated in Table 1. The following abbreviations are used in Table 1: • The “Calpain activity” column, ++ stands for a calpain Ki (Ki(calpain)) of ≦40 nM and + means: 40 nM<Ki(Calpain)≦100 nM. • The “Sel. cat. B” column indicates the Ki(cathepsin B)/Ki(calpain) ratio. In this connection, ++ means a Ki(cathepsin B)/Ki(calpain) ratio of ≧30 and + means 10≦Ki(cathepsin B)/Ki(calpain)<30. • The “Sel. cat. K” column indicates the Ki(cathepsin K)/Ki(calpain) ratio. In this connection, ++ means a Ki(cathepsin K)/Ki(calpain) ratio of ≧30 and + means 10≦Ki(cathepsin K)/Ki(calpain)<30. • The “Sel. cat. L” column indicates the Ki(cathepsin L)/Ki(calpain) ratio. In this connection, ++ means a Ki(cathepsin L)/Ki(calpain) ratio of ≧50 and + means 30≦Ki(cathepsin L)/Ki(calpain)<50. • The “Sel. cat. S” column indicates the Ki(cathepsin S)/Ki(calpain) ratio. In this connection, ++ means a Ki(cathepsin S)/Ki(calpain) ratio of ≧100 and + means 50≦Ki(cathepsin S)/Ki(calpain)<100.

[2] = target: T2, cathepsin L (Homo sapiens, UniProt P07711); experiment: Cathepsin L enzyme inhibition in vitro (kinetic fluorescence assay); assay type: biochemical; details: cathepsin L isolated from human liver vs calpain I
T2 construct: cathepsin L—isolated from human liver (Calbiochem #219402); purchased Calbiochem 219402; host or cells: human liver (tissue-derived)
T2 sequence (P07711 114-333): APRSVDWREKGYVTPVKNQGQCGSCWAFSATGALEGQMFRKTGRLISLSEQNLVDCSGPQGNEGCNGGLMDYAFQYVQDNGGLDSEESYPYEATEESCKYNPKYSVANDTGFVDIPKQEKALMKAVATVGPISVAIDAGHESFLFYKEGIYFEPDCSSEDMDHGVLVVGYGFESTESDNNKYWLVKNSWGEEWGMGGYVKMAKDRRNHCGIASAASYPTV
Experimental: as §1, §2

T1 sequence (P25774 115-331): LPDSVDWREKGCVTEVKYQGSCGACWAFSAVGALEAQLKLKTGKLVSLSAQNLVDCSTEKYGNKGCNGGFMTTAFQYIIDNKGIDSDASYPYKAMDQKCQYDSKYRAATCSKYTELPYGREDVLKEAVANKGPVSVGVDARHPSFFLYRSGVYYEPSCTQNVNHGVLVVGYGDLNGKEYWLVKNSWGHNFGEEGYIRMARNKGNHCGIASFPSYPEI

CCCCC(NC(=O)c1cccnc1-n1cnc(-c2ccc(C(F)(F)F)cc2)c1)C(=O)C(N)=O.Cl (stereo not drawn) [Example 17, N-{1-[Amino(oxo)acetyl]pentyl}-2-{4-[4-(trifluoromethyl)phenyl]-1H-imidazol-1-yl}nicotinamide hydrochloride]
Sel cat. S: Ki(cathepsin S)/Ki(calpain) ratio [1]: + (+ means 50≦Ki(cathepsin S)/Ki(calpain)<100)
Sel cat. L: Ki(cathepsin L)/Ki(calpain) ratio [2]: ++ (++ means a Ki(cathepsin L)/Ki(calpain) ratio of ≧50)

NC(=O)C(=O)C(Cc1ccccc1)NC(=O)c1ccccc1-n1ccc(-c2ccccc2)n1 (stereo not drawn) [Example 106, N-[3-Amino-2,3-dioxo-1-(phenylmethyl)propyl]-2-(3-phenyl-1H-pyrazol-1-yl)benzamide]
Sel cat. S: Ki(cathepsin S)/Ki(calpain) ratio [1]: ++ (++ means a Ki(cathepsin S)/Ki(calpain) ratio of ≧100)
Sel cat. L: Ki(cathepsin L)/Ki(calpain) ratio [2]: + (+ means 30≦Ki(cathepsin L)/Ki(calpain)<50)

NC(=O)C(=O)C(Cc1ccccc1)NC(=O)c1cccnc1-n1ccc(-c2ccc(Cl)cc2)n1 (stereo not drawn) [Example 39, N-(3-Amino-1-benzyl-2,3-dioxopropyl)-2-[3-(4-chlorophenyl)-1H-pyrazol-1-yl]nicotinamide]
Sel cat. S: Ki(cathepsin S)/Ki(calpain) ratio [1]: ++ (++ means a Ki(cathepsin S)/Ki(calpain) ratio of ≧100)
Sel cat. L: Ki(cathepsin L)/Ki(calpain) ratio [2]: ++ (++ means a Ki(cathepsin L)/Ki(calpain) ratio of ≧50)

COc1ccc(-c2cn(-c3ncccc3C(=O)NC(Cc3ccccc3)C(=O)C(N)=O)cn2)cc1 (stereo not drawn) [Example 13, N-(3-Amino-1-benzyl-2,3-dioxopropyl)-2-[4-(4-methoxyphenyl)-1H-imidazol-1-yl]nicotinamide]
Sel cat. S: Ki(cathepsin S)/Ki(calpain) ratio [1]: + (+ means 50≦Ki(cathepsin S)/Ki(calpain)<100)
Sel cat. L: Ki(cathepsin L)/Ki(calpain) ratio [2]: ++ (++ means a Ki(cathepsin L)/Ki(calpain) ratio of ≧50)

NC(=O)C(=O)C(Cc1ccccc1)NC(=O)c1cccnc1-n1cc(COc2ccccc2)c(-c2ccc(F)cc2)n1 (stereo not drawn) [Example 179, N-[3-Amino-2,3-dioxo-1-(phenylmethyl)propyl]-2-{3-(4-fluorophenyl)-4-[(phenyloxy)methyl]-1H-pyrazol-1-yl}pyridine-3-carboxamide]
Sel cat. S: Ki(cathepsin S)/Ki(calpain) ratio [1]: ++ (++ means a Ki(cathepsin S)/Ki(calpain) ratio of ≧100)
Sel cat. L: Ki(cathepsin L)/Ki(calpain) ratio [2]: + (+ means 30≦Ki(cathepsin L)/Ki(calpain)<50)

NC(=O)C(=O)C(Cc1ccccc1)NC(=O)c1cccnc1-n1cnc(-c2ccc(Cl)cc2)c1 (stereo not drawn) [Example 9, N-(3-Amino-1-benzyl-2,3-dioxopropyl)-2-[4-(4-chlorophenyl)-1H-imidazol-1-yl]nicotinamide]
Sel cat. S: Ki(cathepsin S)/Ki(calpain) ratio [1]: ++ (++ means a Ki(cathepsin S)/Ki(calpain) ratio of ≧100)
Sel cat. L: Ki(cathepsin L)/Ki(calpain) ratio [2]: + (+ means 30≦Ki(cathepsin L)/Ki(calpain)<50)

NC(=O)C(=O)C(Cc1ccccc1)NC(=O)c1cccnc1-n1cc2ccccc2n1 (stereo not drawn) [Example 78, N-(3-Amino-1-benzyl-2,3-dioxopropyl)-2-(2H-indazol-2-yl)nicotinamide]
Sel cat. S: Ki(cathepsin S)/Ki(calpain) ratio [1]: + (+ means 50≦Ki(cathepsin S)/Ki(calpain)<100)
Sel cat. L: Ki(cathepsin L)/Ki(calpain) ratio [2]: ++ (++ means a Ki(cathepsin L)/Ki(calpain) ratio of ≧50)

NC(=O)C(=O)C(Cc1cccs1)NC(=O)c1cccnc1-n1ccc(-c2ccc(F)cc2)n1 (stereo not drawn) [Example 57, N-[3-Amino-2,3-dioxo-1-(2-thienylmethyl)propyl]-2-[3-(4-fluorophenyl)-1H-pyrazol-1-yl]nicotinamide]
Sel cat. S: Ki(cathepsin S)/Ki(calpain) ratio [1]: ++ (++ means a Ki(cathepsin S)/Ki(calpain) ratio of ≧100)
Sel cat. L: Ki(cathepsin L)/Ki(calpain) ratio [2]: ++ (++ means a Ki(cathepsin L)/Ki(calpain) ratio of ≧50)

Cl.NC(=O)C(=O)C(Cc1ccccc1)NC(=O)c1cccnc1-n1cnc(-c2ccc(C(F)(F)F)cc2)c1 (stereo not drawn) [Example 18, N-(3-Amino-1-benzyl-2,3-dioxopropyl)-2-{4-[4-(trifluoromethyl)phenyl]-1H-imidazol-1-yl}nicotinamide hydrochloride]
Sel cat. S: Ki(cathepsin S)/Ki(calpain) ratio [1]: ++ (++ means a Ki(cathepsin S)/Ki(calpain) ratio of ≧100)
Sel cat. L: Ki(cathepsin L)/Ki(calpain) ratio [2]: + (+ means 30≦Ki(cathepsin L)/Ki(calpain)<50)

N#Cc1ccc(-c2ccn(-c3ncccc3C(=O)NC(Cc3ccccc3)C(=O)C(N)=O)n2)cc1 (stereo not drawn) [Example 62, N-(3-Amino-1-benzyl-2,3-dioxopropyl)-2-[3-(4-cyanophenyl)-1H-pyrazol-1-yl]nicotinamide]
Sel cat. S: Ki(cathepsin S)/Ki(calpain) ratio [1]: ++ (++ means a Ki(cathepsin S)/Ki(calpain) ratio of ≧100)
Sel cat. L: Ki(cathepsin L)/Ki(calpain) ratio [2]: ++ (++ means a Ki(cathepsin L)/Ki(calpain) ratio of ≧50)

NC(=O)C(=O)C(Cc1ccccc1)NC(=O)c1cccnc1-n1cc2c(n1)-c1ccccc1OCC2 (stereo not drawn) [Example 141, N-[3-Amino-2,3-dioxo-1-(phenylmethyl)propyl]-2-(4,5-dihydro-2H-[1]benzoxepino[5,4-c]pyrazol-2-yl)pyridine-3-carboxamide]
Sel cat. S: Ki(cathepsin S)/Ki(calpain) ratio [1]: ++ (++ means a Ki(cathepsin S)/Ki(calpain) ratio of ≧100)
Sel cat. L: Ki(cathepsin L)/Ki(calpain) ratio [2]: ++ (++ means a Ki(cathepsin L)/Ki(calpain) ratio of ≧50)

CCCCC(NC(=O)c1cccnc1-n1cnc(-c2ccc(N3CCOCC3)cc2)c1)C(=O)C(N)=O.Cl (stereo not drawn) [Example 15, N-{1-[Amino(oxo)acetyl]pentyl}-2-[4-(4-morpholin-4-ylphenyl)-1H-imidazol-1-yl]nicotinamide hydrochloride]
Sel cat. S: Ki(cathepsin S)/Ki(calpain) ratio [1]: + (+ means 50≦Ki(cathepsin S)/Ki(calpain)<100)
Sel cat. L: Ki(cathepsin L)/Ki(calpain) ratio [2]: ++ (++ means a Ki(cathepsin L)/Ki(calpain) ratio of ≧50)

CCCCC(NC(=O)c1cccnc1-n1ccc(-c2ccc(OC)cc2)n1)C(=O)C(N)=O (stereo not drawn) [Example 49, N-{1-[Amino(oxo)acetyl]pentyl}-2-[3-(4-methoxyphenyl)-1H-pyrazol-1-yl]nicotinamide]
Sel cat. S: Ki(cathepsin S)/Ki(calpain) ratio [1]: ++ (++ means a Ki(cathepsin S)/Ki(calpain) ratio of ≧100)
Sel cat. L: Ki(cathepsin L)/Ki(calpain) ratio [2]: + (+ means 30≦Ki(cathepsin L)/Ki(calpain)<50)

CS(=O)(=O)NCc1cn(-c2ncccc2C(=O)NC(Cc2ccccc2)C(=O)C(N)=O)nc1-c1ccc(F)cc1 (stereo not drawn) [Example 187, N-[3-Amino-2,3-dioxo-1-(phenylmethyl)propyl]-2-[3-(4-fluorophenyl)-4-{[(methylsulfonyl)amino]methyl}-1H-pyrazol-1-yl]pyridine-3-carboxamide]
Sel cat. S: Ki(cathepsin S)/Ki(calpain) ratio [1]: ++ (++ means a Ki(cathepsin S)/Ki(calpain) ratio of ≧100)
Sel cat. L: Ki(cathepsin L)/Ki(calpain) ratio [2]: + (+ means 30≦Ki(cathepsin L)/Ki(calpain)<50)

CCCCC(NC(=O)c1cccnc1-n1ccc(-c2cccc(N3CCOCC3)c2)n1)C(=O)C(N)=O (stereo not drawn) [Example 59, N-{1-[Amino(oxo)acetyl]pentyl}-2-[3-(3-morpholin-4-ylphenyl)-1H-pyrazol-1-yl]nicotinamide]
Sel cat. S: Ki(cathepsin S)/Ki(calpain) ratio [1]: + (+ means 50≦Ki(cathepsin S)/Ki(calpain)<100)
Sel cat. L: Ki(cathepsin L)/Ki(calpain) ratio [2]: ++ (++ means a Ki(cathepsin L)/Ki(calpain) ratio of ≧50)
